Test systems include Acinetobacter baumannii; Escherichia coli K88; Escherichia coli K99; Escherichia coli UB1005; Escherichia coli; Klebsiella pneumoniae; Pseudomonas aeruginosa; Staphylococcus aureus.
Common to all, as to assay: ≥ marks a high value that may be exact or a test limit, other limits are often not marked, values filed in µg/mL are converted to µM
Experiment [1] has as its system Candida albicans NCYC 1467.
Experiment [2] has as its system Escherichia coli NCTC 10418.
Experiment [3] concerns Pseudomonas aeruginosa ATCC 27853.
Experiment [4] deals with Staphylococcus aureus ATCC 12493.
The test system of experiment [5] is Staphylococcus aureus NCTC 10788.
For experiment [6], the system named is Candida albicans NCPF 1467.
The test system of experiment [7] is Enterococcus faecalis NCTC 12697.
Experiment [8] concerns Escherichia coli ATCC 25922.
For experiment [9], the system named is Pseudomonas aeruginosa CICC 21625.
For experiment [10], the system named is Pseudomonas aeruginosa CICC 21630.
The subject of experiment [11] is Pseudomonas aeruginosa PAO1.
Experiment [12] relates to Salmonella enterica subsp. enterica serovar Pullorum C79-13.
Experiment [13] concerns Salmonella enterica subsp. enterica serovar Typhimurium ATCC 14028.
The subject of experiment [14] is Salmonella enterica subsp. enterica serovar Typhimurium C77-31.
In experiment [15] the test system is Staphylococcus aureus NCTC 12493.
For experiment [16], the system named is Bacillus subtilis ATCC 6633.
Experiment [17] has as its system Candida albicans ATCC 36232.
Experiment [18] deals with Escherichia coli ATCC 2592.
Experiment [19] concerns Micrococcus luteus ATCC 9341.
For experiment [20], the system named is Pseudomonas aeruginosa ATCC 9027.
In experiment [21] the test system is Staphylococcus aureus ATCC 6538.
Experiment [22] relates to Staphylococcus epidermidis ATCC 12228.

For 8 molecules, MIC results are on record in DBAASP.

Values after ≈ are worked out from the molar mass of the structure shown.

Consider `CC[C@H](C)[C@@H]1NC(=O)[C@H](CO)NC(=O)[C@H](CCCCN)NC(=O)[C@H]([C@@H](C)O)NC(=O)[C@H](Cc2c[nH]c3ccccc23)NC(=O)[C@@H](NC(=O)[C@H](CCCN=C(N)N)NC(=O)[C@H](CCCN=C(N)N)NC(=O)[C@H](CCCN=C(N)N)NC(=O)[C@H](CCC(N)=O)NC(=O)[C@H](CCCN=C(N)N)NC(=O)[C@H](CCCN=C(N)N)NC(=O)[C@H](CCCCN)NC(=O)[C@H](CCCCN)NC(=O)[C@@H](N)CCCN=C(N)N)CSSC[C@@H](C(=O)O)NC(=O)[C@@H]2CCCN2C(=O)[C@H](CCCCN)NC(=O)[C@@H]2CCCN2C(=O)[C@@H]2CCCN2C1=O` [RKKRRQRRRCWTKSIPPKPC], for which the MIC in experiment [1] is 4 µM (≈ 10.3 µg/mL); in experiment [2], at least 128 µM; in [3] it was 256 µM (≈ 660 µg/mL); in experiment [4], at least 256 µM; in experiment [5], at least 128 µM.
Turning to `CC(C)C[C@H](NC(=O)[C@H](C)NC(=O)[C@H](C)NC(=O)[C@H](CC(C)C)NC(=O)[C@H](CC(N)=O)NC(=O)[C@@H](NC(=O)[C@@H](NC(=O)[C@H](CC(C)C)NC(=O)[C@H](CCCCN)NC(=O)[C@H](CCCCN)NC(=O)[C@@H](NC(=O)[C@@H](NC(=O)[C@@H](NC(=O)[C@H](CC(C)C)NC(=O)[C@H](Cc1ccccc1)NC(=O)[C@@H](N)CO)[C@@H](C)O)[C@@H](C)O)C(C)C)C(C)C)[C@@H](C)O)C(N)=O` [SFLTTVKKLVTNLAAL], the MIC in [6] was 16 µM (≈ 27.5 µg/mL); in experiment [7], at least 32 µM; in experiment [2], 16 µM (≈ 27.5 µg/mL); in experiment [3], 64 µM (≈ 110 µg/mL); in experiment [4] it was 16 µM (≈ 27.5 µg/mL); in experiment [5], 8 µM (≈ 13.7 µg/mL).
For the molecule `CC(C)C[C@H](NC(=O)[C@@H]1CCCN1C(=O)[C@H](CCCCN)NC(=O)[C@H](CC(C)C)NC(=O)[C@H](CC(C)C)NC(=O)[C@@H]1CCCN1C(=O)[C@H](CCCCN)NC(=O)[C@H](CC(C)C)NC(=O)[C@H](CC(C)C)NC(=O)[C@@H]1CCCN1C(=O)[C@H](CCCCN)NC(=O)[C@H](CC(C)C)NC(=O)[C@H](CC(C)C)NC(=O)[C@@H]1CCCN1C(=O)[C@H](CCCCN)NC(=O)[C@H](CC(C)C)NC(=O)[C@H](CC(C)C)NC(=O)[C@@H]1CCCN1C(=O)[C@H](CCCCN)NC(=O)[C@H](CC(C)C)NC(=O)[C@H](CC(C)C)NC(=O)[C@@H]1CCCN1C(=O)[C@H](CCCCN)NC(=O)[C@H](CC(C)C)NC(=O)[C@H](CC(C)C)NC(=O)[C@@H]1CCCN1C(=O)[C@H](CCCCN)NC(=O)[C@@H](N)CC(C)C)C(N)=O` [LKPLLKPLLKPLLKPLLKPLLKPLLKPL], the MIC against Acinetobacter baumannii came out at 1 µM (≈ 3.18 µg/mL); in experiment [8], 0.5 µM (≈ 1.59 µg/mL); against Escherichia coli K88, 0.5 µM (≈ 1.59 µg/mL); in the experiment with Escherichia coli K99 it was 1 µM (≈ 3.18 µg/mL); in the experiment on Escherichia coli UB1005 it was 1 µM (≈ 3.18 µg/mL); against Escherichia coli, 2 µM (≈ 6.36 µg/mL). Also, the MIC in the experiment on Klebsiella pneumoniae is 1 µM (≈ 3.18 µg/mL); in experiment [3], 2 µM (≈ 6.36 µg/mL); in experiment [9], 8 µM (≈ 25.4 µg/mL); in experiment [10], 2 µM (≈ 6.36 µg/mL); in experiment [11], 1 µM (≈ 3.18 µg/mL); in the experiment with Pseudomonas aeruginosa, 5.66 µM (≈ 18 µg/mL). The MIC in experiment [12] amounted to 2 µM (≈ 6.36 µg/mL); in experiment [13], 1 µM (≈ 3.18 µg/mL); in experiment [14], 2 µM (≈ 6.36 µg/mL).
Turning to `CC[C@H](C)[C@H](NC(=O)CNC(=O)[C@H](CCC(N)=O)NC(=O)[C@@H](NC(=O)[C@H](C)NC(=O)[C@H](Cc1cnc[nH]1)NC(=O)[C@@H]1CCCN1C(=O)[C@@H](NC(=O)[C@H](CC(C)C)NC(=O)[C@@H]1CCCN1C(=O)[C@@H](NC(=O)[C@H](CC(C)C)NC(=O)[C@H](Cc1cnc[nH]1)NC(=O)[C@H](CCC(N)=O)NC(=O)[C@@H](NC(=O)[C@@H](N)Cc1ccccc1)[C@@H](C)CC)[C@@H](C)CC)[C@@H](C)CC)[C@@H](C)CC)C(=O)N[C@@H](CCCCN)C(=O)N[C@@H](CC(=O)O)C(=O)N[C@H](C(=O)N[C@@H](Cc1ccccc1)C(N)=O)[C@@H](C)CC` [FIQHLIPLIPHAIQGIKDIF], the MIC in experiment [1] is at least 90.5 µM; in experiment [7], at least 128 µM; in [2], at least 512 µM; in experiment [3] it was above 512 µM; in experiment [5] it was 22.6 µM (≈ 52.3 µg/mL); in experiment [15], at least 45.3 µM.
`CC(C)C[C@H](NC(=O)[C@@H]1CCCN1C(=O)[C@H](CCCCN)NC(=O)[C@H](CC(C)C)NC(=O)[C@H](CC(C)C)NC(=O)[C@@H]1CCCN1C(=O)[C@H](CCCCN)NC(=O)[C@H](CC(C)C)NC(=O)[C@H](CC(C)C)NC(=O)[C@@H]1CCCN1C(=O)[C@H](CCCCN)NC(=O)[C@H](CC(C)C)NC(=O)[C@H](CC(C)C)NC(=O)[C@@H]1CCCN1C(=O)[C@H](CCCCN)NC(=O)[C@H](CC(C)C)NC(=O)[C@H](CC(C)C)NC(=O)[C@@H]1CCCN1C(=O)[C@H](CCCCN)NC(=O)[C@H](CC(C)C)NC(=O)[C@H](CC(C)C)NC(=O)[C@@H]1CCCN1C(=O)[C@H](CCCCN)NC(=O)[C@@H](N)CC(C)C)C(N)=O` [LKPLLKPLLKPLLKPLLKPLLKPL]: the MIC was 4 µM (≈ 10.9 µg/mL) in the experiment on Acinetobacter baumannii; 1 µM (≈ 2.73 µg/mL) in experiment [8]; 1 µM (≈ 2.73 µg/mL) in the experiment with Escherichia coli K88; 2 µM (≈ 5.45 µg/mL) with Escherichia coli K99; 2 µM (≈ 5.45 µg/mL) against Escherichia coli UB1005; 2 µM (≈ 5.45 µg/mL) against Escherichia coli. Besides, the MIC with Klebsiella pneumoniae was 8 µM (≈ 21.8 µg/mL); in experiment [3], 4 µM (≈ 10.9 µg/mL); in [9], at least 64 µM; in experiment [10], at least 32 µM; in [11] it was 4 µM (≈ 10.9 µg/mL); against Pseudomonas aeruginosa, 45.3 µM (≈ 123 µg/mL). Further, the minimum inhibitory concentration (MIC) turned out to be 4 µM (≈ 10.9 µg/mL) in experiment [12], 4 µM (≈ 10.9 µg/mL) in experiment [13] and 8 µM (≈ 21.8 µg/mL) in [14].
With `CC(C)[C@H](NC(=O)[C@H](CS)NC(=O)[C@@H](NC(=O)[C@H](CCCN=C(N)N)NC(=O)[C@H](CCCCN)NC(=O)CNC(=O)[C@H](CC(N)=O)NC(=O)[C@H](CS)NC(=O)[C@H](Cc1ccc(O)cc1)NC(=O)CNC(=O)CNC(=O)[C@H](CO)NC(=O)[C@@H](N)CCCN=C(N)N)C(C)C)C(=O)N[C@@H](CS)C(=O)N[C@@H](CCCN=C(N)N)C(=O)O` [RSGGYCNGKRVCVCR], the MIC in experiment [16] was 7.54 µM (≈ 12.5 µg/mL); in experiment [17], 15.1 µM (≈ 25 µg/mL); in [18] it was 30.2 µM (≈ 50 µg/mL); in experiment [19], 15.1 µM (≈ 25 µg/mL); in [20], 30.2 µM (≈ 50 µg/mL); in [21], 15.1 µM (≈ 25 µg/mL). Also, the MIC against Staphylococcus aureus was above 60.3 µM; in experiment [22], 7.54 µM (≈ 12.5 µg/mL).
`CC(C)C[C@H](NC(=O)[C@H](CS)NC(=O)[C@H](CCCCN)NC(=O)[C@H](C)NC(=O)[C@H](C)NC(=O)[C@H](CS)NC(=O)[C@H](C)NC(=O)[C@H](C)NC(=O)[C@@H](N)CC(=O)O)C(=O)N[C@@H](Cc1c[nH]c2ccccc12)C(=O)N[C@@H](CCCN=C(N)N)C(N)=O` [DAACAAKCLWR]: the MIC is at least 166 µM in experiment [17]; at least 166 µM in experiment [18]; at least 166 µM in experiment [19]; above 166 µM in [20]; 166 µM (≈ 200 µg/mL) in experiment [21].
Take `CC[C@H](C)[C@H](NC(=O)CNC(=O)[C@@H]1CCCN1C(=O)[C@H](CC(C)C)NC(=O)[C@@H](N)Cc1ccccc1)C(=O)N[C@@H](CC(C)C)C(=O)N[C@@H](CCCCN)C(=O)N[C@H](C(=O)N[C@@H](C)C(=O)N[C@@H](C)C(=O)N[C@@H](CCCCN)C(N)=O)C(C)C` [FLPGILKVAAK]: the MIC in experiment [6] was at least 512 µM; in [7] it was at least 512 µM; in experiment [2] it was at least 512 µM; in experiment [3], above 512 µM; in [4], at least 512 µM; in experiment [5], at least 256 µM.

In general, MIC refers to the smallest concentration in the dilution series that meets the test's criterion for growth inhibition.
